According to ChEMBL document CHEMBL5325449, “Influence of N-arylsulfonamido d-valine N-substituents on the selectivity and potency of matrix metalloproteinase inhibitors” (Bioorg Med Chem, 2023):

Legend:
[1] = target: 72 kDa type IV collagenase (Homo sapiens, UniProt P08253); assay: (§1) Inhibition of human recombinant MMP-2 (34 to 660 residues) expressed in CHO cells using (7-methoxycoumarin-4-y1)-acetyl-Pro-Leu-Gly-Leu-[3-(2,4-dinitropheny1)-L-2,3-diaminopropionyl]-Ala-Arg-NH2 as substrate preincubated with enzyme for 30 mins followed by substrate addition and measured after 10 mins by fluorescence based analysis; type: cell-based
72 kDa type IV collagenase, sequence (P08253 whole entry, the tested form may be a part): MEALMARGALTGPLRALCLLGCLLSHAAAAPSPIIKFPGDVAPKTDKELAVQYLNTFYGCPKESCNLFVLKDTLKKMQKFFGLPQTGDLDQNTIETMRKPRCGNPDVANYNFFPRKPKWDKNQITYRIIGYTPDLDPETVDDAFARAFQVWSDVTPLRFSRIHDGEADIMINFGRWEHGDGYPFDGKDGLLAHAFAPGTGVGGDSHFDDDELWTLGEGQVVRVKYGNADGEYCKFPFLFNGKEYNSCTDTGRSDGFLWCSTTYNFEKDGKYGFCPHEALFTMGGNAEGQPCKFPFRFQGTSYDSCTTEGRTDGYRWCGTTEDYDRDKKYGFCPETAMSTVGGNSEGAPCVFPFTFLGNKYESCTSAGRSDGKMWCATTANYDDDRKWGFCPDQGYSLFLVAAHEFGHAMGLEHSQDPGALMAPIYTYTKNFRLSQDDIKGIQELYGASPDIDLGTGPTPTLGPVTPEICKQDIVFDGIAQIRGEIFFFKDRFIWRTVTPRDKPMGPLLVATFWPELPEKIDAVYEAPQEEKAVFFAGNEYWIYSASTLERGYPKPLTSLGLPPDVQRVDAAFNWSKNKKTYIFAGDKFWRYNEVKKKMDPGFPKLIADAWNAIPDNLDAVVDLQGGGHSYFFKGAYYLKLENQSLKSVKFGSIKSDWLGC

[2] = target: Matrix metalloproteinase-9 (Homo sapiens, UniProt P14780, Q279R); assay: as §1, with “MMP-9 (20” for “MMP-2 (34”, “707” for “660”, “residues) Gln279Arg mutant” for “residues)”; type: cell-based
Matrix metalloproteinase-9, sequence (P14780 107-707 Q279R limits assumed): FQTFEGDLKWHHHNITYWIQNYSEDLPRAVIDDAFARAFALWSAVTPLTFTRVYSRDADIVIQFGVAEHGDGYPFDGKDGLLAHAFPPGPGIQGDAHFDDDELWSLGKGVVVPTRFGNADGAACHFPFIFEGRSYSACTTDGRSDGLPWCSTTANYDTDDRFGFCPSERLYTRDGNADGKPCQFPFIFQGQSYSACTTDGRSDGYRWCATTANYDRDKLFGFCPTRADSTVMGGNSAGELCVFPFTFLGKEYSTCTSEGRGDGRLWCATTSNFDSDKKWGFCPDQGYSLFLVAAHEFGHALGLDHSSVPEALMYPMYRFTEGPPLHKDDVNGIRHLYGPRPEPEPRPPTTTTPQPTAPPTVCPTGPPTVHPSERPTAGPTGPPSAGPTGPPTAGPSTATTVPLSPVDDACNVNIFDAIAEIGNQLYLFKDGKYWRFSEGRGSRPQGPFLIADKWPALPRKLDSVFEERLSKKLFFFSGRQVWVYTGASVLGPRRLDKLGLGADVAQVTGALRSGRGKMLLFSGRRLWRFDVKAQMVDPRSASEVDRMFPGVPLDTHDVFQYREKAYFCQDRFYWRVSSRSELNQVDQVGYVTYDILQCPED

Neutrophil collagenase = Neutrophil collagenase (Homo sapiens, UniProt P22894); assay: as §1, with “MMP-8 (21” for “MMP-2 (34”, “467” for “660”, “NS0” for “CHO”; type: cell-based
Neutrophil collagenase, sequence (P22894 whole entry): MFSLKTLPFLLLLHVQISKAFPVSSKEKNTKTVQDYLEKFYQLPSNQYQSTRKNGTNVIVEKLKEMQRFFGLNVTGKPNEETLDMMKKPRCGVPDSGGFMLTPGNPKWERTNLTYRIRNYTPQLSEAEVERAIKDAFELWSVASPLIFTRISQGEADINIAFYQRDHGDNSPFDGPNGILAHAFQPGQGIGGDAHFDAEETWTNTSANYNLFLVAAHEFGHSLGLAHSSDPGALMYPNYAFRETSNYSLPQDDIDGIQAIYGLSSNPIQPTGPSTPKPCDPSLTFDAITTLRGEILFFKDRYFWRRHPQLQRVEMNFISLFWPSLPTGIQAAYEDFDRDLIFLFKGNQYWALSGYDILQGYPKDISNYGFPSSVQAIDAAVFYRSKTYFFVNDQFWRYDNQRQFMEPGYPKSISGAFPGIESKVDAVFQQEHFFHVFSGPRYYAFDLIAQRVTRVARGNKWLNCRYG

Collagenase 3 = Collagenase 3 (Homo sapiens, UniProt P45452); assay: as §1, with “MMP-13 (20” for “MMP-2 (34”, “471” for “660”, “NS0” for “CHO”
[3] = target: Macrophage metalloelastase (Homo sapiens, UniProt P39900, V97L); assay: as §1, with “MMP-12 (17” for “MMP-2 (34”, “470” for “660”, “residues) Val97Leu mutant” for “residues)”, “NS0” for “CHO”; type: cell-based
Macrophage metalloelastase, sequence (P39900 whole entry V97L): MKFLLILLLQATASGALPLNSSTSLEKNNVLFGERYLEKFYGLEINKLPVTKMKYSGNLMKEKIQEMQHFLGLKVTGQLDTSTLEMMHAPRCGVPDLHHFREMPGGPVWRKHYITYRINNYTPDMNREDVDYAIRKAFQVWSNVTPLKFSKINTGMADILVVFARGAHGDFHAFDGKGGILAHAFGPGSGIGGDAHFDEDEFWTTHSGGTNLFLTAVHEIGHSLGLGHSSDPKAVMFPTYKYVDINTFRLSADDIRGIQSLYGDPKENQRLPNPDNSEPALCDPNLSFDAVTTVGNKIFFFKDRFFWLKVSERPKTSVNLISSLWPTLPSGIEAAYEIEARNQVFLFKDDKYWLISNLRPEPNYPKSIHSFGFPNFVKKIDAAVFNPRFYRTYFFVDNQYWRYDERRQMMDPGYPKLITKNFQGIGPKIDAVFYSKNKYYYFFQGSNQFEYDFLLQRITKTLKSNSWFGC

IC50 [1] [µM] | IC50 [2] [µM] | IC50 (Neutrophil collagenase) [µM] | IC50 (Collagenase 3) [µM] | IC50 [3] [µM] | Compound
0.08 | 0.329 | > 10 | 0.333 | 0.527 | CCCCCCN([C@@H](C(=O)O)C(C)C)S(=O)(=O)c1ccc(-c2nc(-c3ccc(C)s3)no2)cc1
0.004 | 0.013 | 0.026 | 0.057 | 0.014 | Cc1ccc(-c2noc(-c3ccc(S(=O)(=O)N[C@@H](C(=O)O)C(C)C)cc3)n2)s1
0.00059 | 0.034 | 0.09 | 0.458 | 0.036 | Cc1ccc(-c2noc(-c3ccc(S(=O)(=O)N(CCF)[C@@H](C(=O)O)C(C)C)cc3)n2)s1
0.016 | 0.102 | 0.022 | 0.012 | 0.013 | CC(C)[C@@H](NS(=O)(=O)c1ccc(-c2nc(-c3ccc(Cn4cc(CCCF)nn4)s3)no2)cc1)C(=O)O
0.003 | 0.025 | 0.101 | 0.096 | 0.041 | Cc1ccc(-c2noc(-c3ccc(S(=O)(=O)N(CCCCF)[C@@H](C(=O)O)C(C)C)cc3)n2)s1
0.022 | 1 | 0.089 | 0.036 | 0.029 | CC(C)[C@@H](NS(=O)(=O)c1ccc(-c2nc(-c3ccc(Cn4cc(CCCCCF)nn4)s3)no2)cc1)C(=O)O

Further lines, the compound ahead of its results:

Compound | IC50 [1] [µM] | IC50 [2] [µM] | IC50 (Neutrophil collagenase) [µM] | IC50 (Collagenase 3) [µM] | IC50 [3] [µM]
Cc1ccc(-c2noc(-c3ccc(S(=O)(=O)N(Cc4ccccc4)[C@@H](C(=O)O)C(C)C)cc3)n2)s1 | 0.005 | 0.095 | 0.58 | 0.987 | 0.113
CCCN([C@@H](C(=O)O)C(C)C)S(=O)(=O)c1ccc(-c2nc(-c3ccc(C)s3)no2)cc1 | 0.005 | 0.092 | 0.19 | 0.35 | 0.026
CCCCCN([C@@H](C(=O)O)C(C)C)S(=O)(=O)c1ccc(-c2nc(-c3ccc(C)s3)no2)cc1 | 0.032 | 0.087 | 0.466 | 0.104 | 0.162
CCCCCCCCCCCCCCCCN([C@@H](C(=O)O)C(C)C)S(=O)(=O)c1ccc(-c2nc(-c3ccc(C)s3)no2)cc1 | > 10 | > 10 | > 10 | > 10 | > 10
Cc1ccc(-c2noc(-c3ccc(S(=O)(=O)N(CCCCCCCCCCCCN=[N+]=[N-])[C@@H](C(=O)O)C(C)C)cc3)n2)s1 | 0.057 | 0.933 | 0.923 | 2 | 4
CCN([C@@H](C(=O)O)C(C)C)S(=O)(=O)c1ccc(-c2nc(-c3ccc(C)s3)no2)cc1 | 0.0007 | 0.033 | 0.149 | 0.252 | 0.058
Cc1ccc(-c2noc(-c3ccc(S(=O)(=O)N(CCCC(F)(F)F)[C@@H](C(=O)O)C(C)C)cc3)n2)s1 | 0.028 | 0.154 | 0.371 | 0.391 | 0.164
CCCCCCCCN([C@@H](C(=O)O)C(C)C)S(=O)(=O)c1ccc(-c2nc(-c3ccc(C)s3)no2)cc1 | 0.99 | 4 | – | > 10 | 3.6
Cc1ccc(-c2noc(-c3ccc(S(=O)(=O)N(CCOCOCCCOCCN=[N+]=[N-])[C@@H](C(=O)O)C(C)C)cc3)n2)s1 | 0.008 | 0.036 | 0.083 | 0.093 | 0.182
CCCCN([C@@H](C(=O)O)C(C)C)S(=O)(=O)c1ccc(-c2nc(-c3ccc(C)s3)no2)cc1 | 0.01 | 0.087 | 0.547 | 0.212 | 0.105
Cc1ccc(-c2noc(-c3ccc(S(=O)(=O)N(C)[C@@H](C(=O)O)C(C)C)cc3)n2)s1 | 0.005 | 0.036 | 0.013 | 0.37 | 0.037
